Measured values as given in ChEMBL document CHEMBL1201862, “PubChem BioAssay data set” (2004).
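Compound exposure: 48 hours, 5 concentrations, 96-well plates. At the GI50, growth is halved.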 Activity calls are given as the source filed them. Rule as the data show it: active = GI50 up to about 1.1 µM and inactive = higher.

Key:
Assay in all cases: DTP human tumour cell line panel, 48 h
SF-268 = test system: SF-268
SF-295 = test system: SF-295
EKVX = test system: EKVX
HL-60 = test system: HL-60
RPMI-8226 = test system: RPMI-8226
IGROV-1 = test system: IGROV-1
SK-MEL-28 = test system: SK-MEL-28
A498 = test system: A498
SNB-19 = test system: SNB-19
MOLT-4 = test system: MOLT-4
UACC-257 = test system: UACC-257
MDA-MB-435 = test system: MDA-MB-435
LOX IMVI = test system: LOX IMVI
HT-29 = test system: HT-29
HOP-62 = test system: HOP-62
HCC 2998 = test system: HCC 2998
HCT-116 = test system: HCT-116
MCF7 = test system: MCF7
RXF 393 = test system: RXF 393
Malme-3M = test system: Malme-3M

Compound	GI50 (SF-268)	GI50 (SF-295)	GI50 (EKVX)	GI50 (HL-60)	GI50 (RPMI-8226)	GI50 (IGROV-1)	GI50 (SK-MEL-28)	GI50 (A498)	GI50 (SNB-19)	GI50 (MOLT-4)	GI50 (UACC-257)	GI50 (MDA-MB-435)	GI50 (LOX IMVI)	GI50 (HT-29)	GI50 (HOP-62)	GI50 (HCC 2998)	GI50 (HCT-116)	GI50 (MCF7)	GI50 (RXF 393)	GI50 (Malme-3M)
CCCC(C(=O)Nc1cccc2nc[nH]c12)C(=O)OCC (configuration not stated)	> 100 µM (inactive)	> 100 µM (inactive)	> 100 µM (inactive)	> 100 µM (inactive)	> 100 µM (inactive)	> 100 µM (inactive)	> 100 µM (inactive)	> 100 µM (inactive)	> 100 µM (inactive)	> 100 µM (inactive)	> 100 µM (inactive)	> 100 µM (inactive)	> 100 µM (inactive)	> 100 µM (inactive)	> 100 µM (inactive)	> 100 µM (inactive)	> 100 µM (inactive)	> 100 µM (inactive)		
Cc1ccc(-c2n[nH]c(=O)n2N2C(=O)c3ccccc3C2=O)cc1	> 100 µM (inactive)	> 100 µM (inactive)		> 100 µM (inactive)	> 100 µM (inactive)	> 100 µM (inactive)	> 100 µM (inactive)		> 100 µM (inactive)	> 100 µM (inactive)	> 100 µM (inactive)	> 100 µM (inactive)	> 100 µM (inactive)	> 100 µM (inactive)	> 100 µM (inactive)	> 100 µM (inactive)	> 100 µM (inactive)	> 100 µM (inactive)	> 100 µM (inactive)	> 100 µM (inactive)
O=C(O)CC(O)(C(=O)O)C(O)C(=O)O (configuration not stated)	> 1000 µM (inactive)	> 1000 µM (inactive)	> 1000 µM (inactive)	> 1000 µM (inactive)	787 µM (inactive)	> 1000 µM (inactive)	> 1000 µM (inactive)		> 1000 µM (inactive)	> 1000 µM (inactive)	> 1000 µM (inactive)	826 µM (inactive)	440 µM (inactive)	> 1000 µM (inactive)	> 1000 µM (inactive)	> 1000 µM (inactive)	> 1000 µM (inactive)	> 1000 µM (inactive)	> 1000 µM (inactive)	> 1000 µM (inactive)
COC(=O)CNCC1OC2OC(C)(C)OC2C1N=[N+]=[N-] (configuration not stated)		> 100 µM (inactive)	> 100 µM (inactive)	> 100 µM (inactive)	> 100 µM (inactive)	> 100 µM (inactive)	> 100 µM (inactive)	> 100 µM (inactive)	> 100 µM (inactive)	> 100 µM (inactive)	> 100 µM (inactive)	> 100 µM (inactive)	> 100 µM (inactive)	> 100 µM (inactive)	> 100 µM (inactive)		> 100 µM (inactive)	> 100 µM (inactive)	> 100 µM (inactive)	
O=C(O)CNCCc1ccccc1	> 100 µM (inactive)	> 100 µM (inactive)	> 100 µM (inactive)	> 100 µM (inactive)	> 100 µM (inactive)	> 100 µM (inactive)	> 100 µM (inactive)	> 100 µM (inactive)	> 100 µM (inactive)			> 100 µM (inactive)	> 100 µM (inactive)	> 100 µM (inactive)	> 100 µM (inactive)		> 100 µM (inactive)	> 100 µM (inactive)	> 100 µM (inactive)	> 100 µM (inactive)
c1ccc2c(c1)[nH]c1c2cc[n+]2cc3c(cc12)CCCC3	2.93 µM (inactive)	3.18 µM (inactive)	4.89 µM (inactive)		1.53 µM (inactive)	7.18 µM (inactive)	1.47 µM (inactive)	5.38 µM (inactive)	3 µM (inactive)	1.18 µM (inactive)	4.09 µM (inactive)	1.91 µM (inactive)	2.39 µM (inactive)	3.28 µM (inactive)	1.66 µM (inactive)	1.87 µM (inactive)	1.59 µM (inactive)	2.13 µM (inactive)		
COc1ccc(C[C@@H]2OC3(C=CC(=O)CC3Sc3ccccc3)O[C@H]2Cc2ccc(OC)cc2)cc1 (some centres not stated)	0.335 µM (active)	1.91 µM (inactive)		1.12 µM (active)	0.31 µM (active)	0.904 µM (active)	1.86 µM (inactive)	4.08 µM (inactive)	2.61 µM (inactive)	0.282 µM (active)	1.47 µM (inactive)	1.9 µM (inactive)	0.458 µM (active)	1.79 µM (inactive)	0.432 µM (active)			0.388 µM (active)	0.107 µM (active)	1.85 µM (inactive)
O=S(=O)(O)c1ccc2c(/N=N/c3ccc(Sc4ccc(/N=N/c5c(O)ccc6cc(S(=O)(=O)O)ccc56)cc4)cc3)c(O)ccc2c1	> 100 µM (inactive)	> 100 µM (inactive)	> 100 µM (inactive)	> 100 µM (inactive)	> 100 µM (inactive)	> 100 µM (inactive)	> 100 µM (inactive)		> 100 µM (inactive)	> 100 µM (inactive)	> 100 µM (inactive)	> 100 µM (inactive)		> 100 µM (inactive)	> 100 µM (inactive)	> 100 µM (inactive)	> 100 µM (inactive)	> 100 µM (inactive)	> 100 µM (inactive)	> 100 µM (inactive)
CSC1=N/C(=C\c2ccc(C)cc2)C(=O)N1CN1CCCCC1	61.8 µM (inactive)	> 100 µM (inactive)	75.3 µM (inactive)		32.3 µM (inactive)	46.6 µM (inactive)	> 100 µM (inactive)	> 100 µM (inactive)	> 100 µM (inactive)	> 100 µM (inactive)		> 100 µM (inactive)	34.3 µM (inactive)	38.5 µM (inactive)	> 100 µM (inactive)		84.9 µM (inactive)	88.1 µM (inactive)		> 100 µM (inactive)
CCOC(=O)C(O)(NC(C)=O)C(F)(F)F (configuration not stated)	> 100 µM (inactive)	> 100 µM (inactive)	> 100 µM (inactive)	43.8 µM (inactive)	> 100 µM (inactive)	> 100 µM (inactive)	> 100 µM (inactive)		> 100 µM (inactive)	> 100 µM (inactive)	> 100 µM (inactive)	> 100 µM (inactive)	> 100 µM (inactive)	> 100 µM (inactive)	> 100 µM (inactive)	> 100 µM (inactive)	> 100 µM (inactive)	> 100 µM (inactive)	> 100 µM (inactive)	> 100 µM (inactive)
O=C(OCCN=C1c2ccccc2CCc2ccccc21)c1ccccc1	> 100 µM (inactive)	> 100 µM (inactive)	> 100 µM (inactive)	> 100 µM (inactive)	13 µM (inactive)	> 100 µM (inactive)	> 100 µM (inactive)		> 100 µM (inactive)	15.2 µM (inactive)	> 100 µM (inactive)	> 100 µM (inactive)	> 100 µM (inactive)	> 100 µM (inactive)	> 100 µM (inactive)	> 100 µM (inactive)	> 100 µM (inactive)	> 100 µM (inactive)	> 100 µM (inactive)	> 100 µM (inactive)
COc1ccc(-c2c(C(C)=O)c(C)n(C3OC(CO)C(O)C(O)C3O)c(=S)c2C#N)cc1 (configuration not stated)	> 100 µM (inactive)	72.9 µM (inactive)	55.1 µM (inactive)	41 µM (inactive)	83.6 µM (inactive)	> 100 µM (inactive)	44.6 µM (inactive)		19.5 µM (inactive)	27.7 µM (inactive)	> 100 µM (inactive)	72.6 µM (inactive)	45.5 µM (inactive)	> 100 µM (inactive)	> 100 µM (inactive)		86.9 µM (inactive)	> 100 µM (inactive)	73.1 µM (inactive)	70.5 µM (inactive)
NC(CCCCCP(=O)(c1ccccc1)C1C=CC=CC1)C(=O)O (configuration not stated)	> 100 µM (inactive)	> 100 µM (inactive)	> 100 µM (inactive)	> 100 µM (inactive)	> 100 µM (inactive)	> 100 µM (inactive)	> 100 µM (inactive)		> 100 µM (inactive)	> 100 µM (inactive)	> 100 µM (inactive)	> 100 µM (inactive)	> 100 µM (inactive)	> 100 µM (inactive)		> 10 µM (inactive)	> 100 µM (inactive)	> 100 µM (inactive)	> 100 µM (inactive)	
N=C1NC(c2ccc(Cl)cc2)=CC(c2cccc(Cl)c2)S1 (configuration not stated)	41.8 µM (inactive)	33.8 µM (inactive)	25.4 µM (inactive)	38 µM (inactive)	17.3 µM (inactive)	30.9 µM (inactive)			16.8 µM (inactive)	37.4 µM (inactive)	25.2 µM (inactive)	18.2 µM (inactive)	33.7 µM (inactive)	30.8 µM (inactive)	38.7 µM (inactive)	27.7 µM (inactive)	26.4 µM (inactive)	24.8 µM (inactive)	23.8 µM (inactive)	38 µM (inactive)
CC[C@@]12CCC(=S)N(CCSc3ccccc3)[C@@H]1c1c(n(S(=O)(=O)c3ccc(OC)cc3)c3ccccc13)CC2	> 100 µM (inactive)	> 100 µM (inactive)	> 100 µM (inactive)	> 100 µM (inactive)	> 100 µM (inactive)	> 100 µM (inactive)	> 100 µM (inactive)	> 100 µM (inactive)	32.9 µM (inactive)	> 100 µM (inactive)	> 100 µM (inactive)	> 100 µM (inactive)	> 100 µM (inactive)	> 100 µM (inactive)	> 100 µM (inactive)		> 100 µM (inactive)	> 100 µM (inactive)	24.1 µM (inactive)	> 100 µM (inactive)
